The test deals with BCL6 (Homo sapiens (Human), UniProt P41182). Nature of the test: Immunofluorescence high content imaging of BCL6 degradation in T47D cells. In kind it is cell-based. As to conditions: for DC50: class symbols A-D, read-out: EC50 (nM)*. The gist of the method: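 T47D, 3 d compound exposure, 11-pt 3-fold series, top 0.1 or 1 μM final. Fix 4% PFA, Triton permeabilize, anti-BCL6 primary overnight 4 °C, Alexa-488 secondary. High-content imaging 10×, 4 fields/well, top-hat smoothing.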

Like-named read-outs stand apart in the source and are kept apart here.

Take `CNC(=O)COc1cc2cc(Nc3nc(N4CC5(CCN(CC6CCN(c7cccc8c7C(=O)N(C7CCC(=O)NC7=O)C8=O)CC6)CC5)C4)ncc3Cl)ccc2n(C(C)C)c1=O` (centres unmarked) [compound 426, 2-{[6-({5-chloro-2-[7-({1-[2-(2,6-dioxopiperidin-3-yl)-1,3-dioxo-2,3-dihydro-1H-isoindol-4-yl]piperidin-4-yl}methyl)-2,7-diazaspiro[3.5]nonan-2-yl]pyrimidin-4-yl}amino)-2-oxo-1-(propan-2-yl)-1,2-dihydroquinolin-3-yl]oxy}-N-methylacetamide]: the Dmax (T47D cells) was not below 70%. Turning to `CNC(=O)COc1cc2cc(Nc3nc(N4CCC(OCCOCCOCCOc5ccc6c(c5)CN(C5CCC(=O)NC5=O)C6=O)CC4)ncc3Cl)ccc2n(C)c1=O` (centres unmarked) [compound 65, 2-((6-((5-chloro-2-(4-(2-(2-(2-((2-(2,6-dioxopiperidin-3-yl)-1-oxoisoindolin-5-yl)oxy)ethoxy)ethoxy)ethoxy)piperidin-1-yl)pyrimidin-4-yl)amino)-1-methyl-2-oxo-1,2-dihydroquinolin-3-yl)oxy)-N-methylacetamide], the DC50 is more than 100 nM. With `CCn1c(=O)c(OCC(=O)NC)cc2cc(Nc3nc(N4CCN(CC5CCN(c6ccc7c(c6)C(=O)N(C6CCC(=O)NC6=O)C7=O)CC5)CC4)ncc3Cl)ccc21` (centres unmarked) [compound 250, 2-((6-((5-chloro-2-(4-((1-(2-(2,6-dioxopiperidin-3-yl)-1,3-dioxoisoindolin-5-yl)piperidin-4-yl)methyl)piperazin-1-yl)pyrimidin-4-yl)amino)-1-ethyl-2-oxo-1,2-dihydroquinolin-3-yl)oxy)-N-methylacetamide], the IC50 is less than 10 nM. Besides, the Dmax (T47D) was in the range of 50 to 70%. In the case of `CNC(=O)COc1cc2cc(Nc3nc(N4CCC(CN5CC6(CCN(c7cccc(C(=O)NC8CCC(=O)NC8=O)c7OC)CC6)C5)CC4)ncc3Cl)ccc2n(C(C)C)c1=O` (centres unmarked) [compound 441, 3-[2-({1-[5-chloro-4-({3-[(methylcarbamoyl)methoxy]-2-oxo-1-(propan-2-yl)-1,2-dihydroquinolin-6-yl}amino)pyrimidin-2-yl]piperidin-4-yl}methyl)-2,7-diazaspiro[3.5]nonan-7-yl]-N-(2,6-dioxopiperidin-3-yl)-2-methoxybenzamide], the IC50 (T47D cells) is not below 100 nM. The compound `CNC(=O)COc1cc2cc(Nc3nc(N4CCN(CC5CCN(c6cccc7c6C(=O)N(C6CCC(=O)NC6=O)C7=O)CC5)CC4)ncc3Cl)ccc2n(C(C)C)c1=O` (centres unmarked) [compound 311, 2-{[6-({5-chloro-2-[4-({1-[2-(2,6-dioxopiperidin-3-yl)-1,3-dioxo-2,3-dihydro-1H-isoindol-4-yl]piperidin-4-yl}methyl)piperazin-1-yl]pyrimidin-4-yl}amino)-2-oxo-1-(propan-2-yl)-1,2-dihydroquinolin-3-yl]oxy}-N-methylacetamide] returned an IC50 of less than 10 nM. Under “T47D”, the Dmax is not below 70%.

Turning to `CNC(=O)COc1cc2cc(Nc3nc(N4CCC(OCCOCCOCCCOCCCOc5ccc6c(c5)CN(C5CCC(=O)NC5=O)C6=O)CC4)ncc3Cl)ccc2n(C)c1=O` (centres unmarked) [compound 145, 2-((6-((5-chloro-2-(4-(2-(2-(3-(3-((2-(2,6-dioxopiperidin-3-yl)-1-oxoisoindolin-5-yl)oxy)propoxy)propoxy)ethoxy)ethoxy)piperidin-1-yl)pyrimidin-4-yl)amino)-1-methyl-2-oxo-1,2-dihydroquinolin-3-yl)oxy)-N-methylacetamide], the DC50 fell in the range of 50 to 100 nM. As for `CNC(=O)COc1cc2cc(Nc3nc(N4CCC(OCCOCCOCCOCCOc5ccccc5Oc5ccc6c(c5)CN(C5CCC(=O)NC5=O)C6=O)CC4)ncc3Cl)ccc2n(C)c1=O` (centres unmarked) [compound 134, 2-((6-((5-chloro-2-(4-(2-(2-(2-(2-(2-((2-(2,6-dioxopiperidin-3-yl)-1-oxoisoindolin-5-yl)oxy)phenoxy)ethoxy)ethoxy)ethoxy)ethoxy)piperidin-1-yl)pyrimidin-4-yl)amino)-1-methyl-2-oxo-1,2-dihydroquinolin-3-yl)oxy)-N-methylacetamide], the DC50 is more than 100 nM. As to `CNC(=O)COc1cc2cc(Nc3nc(N4CCN(CC5CCN(c6ccc7c(c6)C(=O)N(C6CCC(=O)NC6=O)C7=O)CC5)CC4)c(Cl)cc3Cl)ccc2n(C)c1=O` (centres unmarked) [compound 254, 2-((6-((3,5-dichloro-6-(4-((1-(2-(2,6-dioxopiperidin-3-yl)-1,3-dioxoisoindolin-5-yl)piperidin-4-yl)methyl)piperazin-1-yl)pyridin-2-yl)amino)-1-methyl-2-oxo-1,2-dihydroquinolin-3-yl)oxy)-N-methylacetamide], the IC50 is not below 100 nM. For the compound `CNC(=O)COc1cc2cc(Nc3nc(N4CCC(OCCCOc5cc(-c6scnc6C)ccc5CNC(=O)[C@@H]5C[C@@H](O)CN5C(=O)C(c5cc(C)no5)C(C)C)CC4)ncc3Cl)ccc2n(C)c1=O` (stereo partly drawn) [compound 141, (2S,4R)-N-(2-(3-((1-(5-chloro-4-((1-methyl-3-(2-(methylamino)-2-oxoethoxy)-2-oxo-1,2-dihydroquinolin-6-yl)amino)pyrimidin-2-yl)piperidin-4-yl)oxy)propoxy)-4-(4-methylthiazol-5-yl)benzyl)-4-hydroxy-1-(3-methyl-2-(3-methylisoxazol-5-yl)butanoyl)pyrrolidine-2-carboxamide], the DC50 was more than 100 nM. Take `CNC(=O)COc1cc2cc(Nc3nc(N4CCN(C(C)(C)C5CCN(c6cccc7c6C(=O)N(C6CCC(=O)NC6=O)C7=O)CC5)CC4)ncc3Cl)ccc2n(C(C)C)c1=O` (centres unmarked) [compound 307, 2-{[6-({5-chloro-2-[4-(2-{1-[2-(2,6-dioxopiperidin-3-yl)-1,3-dioxo-2,3-dihydro-1H-isoindol-4-yl]piperidin-4-yl}propan-2-yl)piperazin-1-yl]pyrimidin-4-yl}amino)-2-oxo-1-(propan-2-yl)-1,2-dihydroquinolin-3-yl]oxy}-N-methylacetamide]: the IC50 was less than 10 nM. Under “T47D”, the Dmax was in the range of 50 to 70%. For the setting “T47D cells”, `CNC(=O)COc1cc2cc(Nc3nc(N4CCN(CC5(F)CCN(c6cccc7c6C(=O)N(C6CCC(=O)NC6=O)C7=O)CC5)CC4)ncc3Cl)ccc2n(C)c1=O` (centres unmarked) [compound 341, 2-{[6-({5-chloro-2-[4-({1-[2-(2,6-dioxopiperidin-3-yl)-1,3-dioxo-2,3-dihydro-1H-isoindol-4-yl]-4-fluoropiperidin-4-yl}methyl)piperazin-1-yl]pyrimidin-4-yl}amino)-1-methyl-2-oxo-1,2-dihydroquinolin-3-yl]oxy}-N-methylacetamide] registered a Dmax not below 70% and an IC50 of less than 10 nM. The corresponding values for `CNC(=O)COc1cc2cc(Nc3nc(N4CCC5(CC4)CN(CC4CCN(c6cccc7c6C(=O)N(C6CCC(=O)NC6=O)C7=O)CC4)C5)ncc3Cl)ccc2n(C(C)C)c1=O` (centres unmarked) [compound 385, 2-{[6-({5-chloro-2-[2-({1-[2-(2,6-dioxopiperidin-3-yl)-1,3-dioxo-2,3-dihydro-1H-isoindol-4-yl]piperidin-4-yl}methyl)-2,7-diazaspiro[3.5]nonan-7-yl]pyrimidin-4-yl}amino)-2-oxo-1-(propan-2-yl)-1,2-dihydroquinolin-3-yl]oxy}-N-methylacetamide] are 50 to 70% and less than 10 nM.
